Data published in PMC4986690 (Analytical chemistry, 2015).

Experiments:
[1] = molecular target: T1, sex hormone binding globulin (SHBG) (Homo sapiens, UniProt P04278)
T1 sequence (P04278 30-402): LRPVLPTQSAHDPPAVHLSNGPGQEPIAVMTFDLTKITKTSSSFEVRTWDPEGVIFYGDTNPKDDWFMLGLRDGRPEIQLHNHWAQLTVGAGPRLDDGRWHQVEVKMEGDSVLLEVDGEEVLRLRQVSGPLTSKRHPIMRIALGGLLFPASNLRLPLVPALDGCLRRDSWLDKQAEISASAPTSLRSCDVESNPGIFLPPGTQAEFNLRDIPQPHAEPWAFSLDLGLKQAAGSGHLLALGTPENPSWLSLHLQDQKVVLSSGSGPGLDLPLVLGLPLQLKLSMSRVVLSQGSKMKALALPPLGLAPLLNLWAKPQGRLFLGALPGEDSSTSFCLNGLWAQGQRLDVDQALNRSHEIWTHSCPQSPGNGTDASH

[2] = molecular target: human serum albumin (HSA) (Homo sapiens, UniProt P02768); assay: ultrafast affinity extraction, two-dimensional HSA microcolumns, UV […] nm; assay type: binding
human serum albumin (HSA), sequence (P02768 25-609): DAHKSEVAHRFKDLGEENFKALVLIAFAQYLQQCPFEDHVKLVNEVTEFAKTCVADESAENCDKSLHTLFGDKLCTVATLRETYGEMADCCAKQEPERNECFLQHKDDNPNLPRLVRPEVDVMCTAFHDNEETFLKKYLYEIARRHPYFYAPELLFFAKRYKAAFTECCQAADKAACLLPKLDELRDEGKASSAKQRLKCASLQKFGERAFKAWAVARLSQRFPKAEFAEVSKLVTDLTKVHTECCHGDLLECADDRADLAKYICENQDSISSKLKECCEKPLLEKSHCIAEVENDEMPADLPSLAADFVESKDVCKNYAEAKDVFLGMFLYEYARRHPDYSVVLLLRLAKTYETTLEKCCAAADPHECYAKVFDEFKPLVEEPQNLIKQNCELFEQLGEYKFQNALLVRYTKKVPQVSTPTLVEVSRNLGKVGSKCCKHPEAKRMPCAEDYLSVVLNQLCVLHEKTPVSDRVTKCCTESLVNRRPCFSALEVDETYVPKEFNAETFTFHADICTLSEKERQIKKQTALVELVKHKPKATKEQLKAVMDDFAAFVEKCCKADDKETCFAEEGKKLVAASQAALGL

Compound: C[C@]12CC[C@H]3[C@@H](CCC4=CC(=O)CC[C@@]43C)[C@@H]1CC[C@@H]2O [testosterone]
- Kd [1]: 0.000909 µM
- Kd [2]: 31.2 µM
